From ChEMBL document CHEMBL5104128, “The discovery of a non-competitive GOT1 inhibitor, hydralazine hydrochloride, via a coupling reaction-based high-throughput screening assay” (Bioorg Med Chem Lett, 2022)
Structures can show the parent of a compound that is named as a salt.

What was measured:
[1] = target: T1, Aspartate aminotransferase, cytoplasmic (Homo sapiens, UniProt P17174); assay: Inhibition of C-terminal His6-tagged human recombinant GOT1 expressed in Escherichia coli BL21 (DE3) cells using aspartic acid and alpha-ketoglutaric acid as substrates incubated in presence of MDH1 and NADH
T1 sequence (P17174 whole entry): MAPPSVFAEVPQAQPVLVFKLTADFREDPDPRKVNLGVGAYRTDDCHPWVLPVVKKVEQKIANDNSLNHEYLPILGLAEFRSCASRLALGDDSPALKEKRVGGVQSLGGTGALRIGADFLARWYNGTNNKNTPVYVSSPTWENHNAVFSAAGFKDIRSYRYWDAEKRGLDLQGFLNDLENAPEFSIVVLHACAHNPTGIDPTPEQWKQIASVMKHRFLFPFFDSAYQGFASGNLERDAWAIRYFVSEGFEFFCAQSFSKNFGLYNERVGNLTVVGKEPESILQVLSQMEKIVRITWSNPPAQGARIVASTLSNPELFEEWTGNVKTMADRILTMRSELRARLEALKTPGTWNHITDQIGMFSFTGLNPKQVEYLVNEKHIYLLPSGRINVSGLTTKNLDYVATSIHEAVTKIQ

[2] = target: T1, Aspartate aminotransferase, cytoplasmic; assay: Inhibition of GOT1 (unknown origin)
[3] = target: T1, Aspartate aminotransferase, cytoplasmic; assay: Binding affinity to GOT1 (unknown origin) assessed as dissociation constant by microscale thermophoresis assay
[4] = target: T1, Aspartate aminotransferase, cytoplasmic; assay: Noncompetitive inhibition of GOT1 (unknown origin) using aspartic acid as substrate assessed as inhibition constant by Michaelis-Menten equation based kinetic analysis
[5] = target: T1, Aspartate aminotransferase, cytoplasmic; assay: Noncompetitive inhibition of GOT1 (unknown origin) using alpha-Ketoglutaric acid as substrate assessed as inhibition constant by Michaelis-Menten equation based kinetic analysis
[6] = target: T1, Aspartate aminotransferase, cytoplasmic; assay: Inhibition of GOT1 (unknown origin) using aspartic acid and alpha-ketoglutaric acid as substrates assessed as reduction in absorbance of NADH incubated for 20 mins in presence of MDH1 and NADH by HTS assay
[7] = target: T1, Aspartate aminotransferase, cytoplasmic; assay: Inhibition of human recombinant GOT1 using aspartic acid and alpha-ketoglutaric acid as substrates incubated in presence of MDH1 and NADH

COc1ccc(-c2ccc3cc(C(=O)O)ccc3c2)cc1C12CC3CC(CC(C3)C1)C2 [ADAPALENE]
IC50 [1]: 21.8 µM

NC1Cc2ccccc2N(O)C1=O (centres undefined)
IC50 [2]: 8 µM

NNc1nncc2ccccc12 [HYDRALAZINE HYDROCHLORIDE]
IC50 [2]: 26.6 µM | Kd [3]: 16.5 µM | Ki [4]: 14.7 µM | Ki [5]: 20.2 µM

NNc1cccnn1
IC50 [6]: 29.4 µM

CC(C)=CCc1cc(/C=C2\OC(=O)C(c3cc(CC=C(C)C)c(O)cc3O)=C2O)ccc1O
IC50 [7]: 2.92 µM

O=C1Cc2cc(CCN3CCN(c4nsc5ccccc45)CC3)c(Cl)cc2N1 [ZIPRASIDONE]
IC50 [2]: 5.39 µM

Nc1cccnn1
IC50 [6]: > 100 µM

NNc1nnc(NN)c2ccccc12 [DIHYDRALAZINE]
IC50 [6]: > 100 µM

NNc1nncc2ccccc12 [HYDRALAZINE]
IC50 [6]: 26.6 µM

Nc1cccc2cnncc12
IC50 [6]: > 100 µM

NNc1nnc(Cl)c2ccccc12
IC50 [6]: 65.4 µM
